Test results: US20260062414A1, “NOVEL COCRYSTALS OF METHYLXANTHINES, THEIR POLYMORPHS AND PROCESS THEREOF” (FERTIS INDIA PVT LTD, priority 2022, published 2026)

Assay: Dissolution studies of cocrystals
Details: for Release rate of active ingredient compared to pure form: dissolution study, cocrystal vs pure methylxanthine
Experimental: In an embodiment, the dissolution study of the cocrystals of Methylxanthines with the coformers Pterostilbene and Resveratrol were evaluated.

SMILES | Bioavailability compared to pure form | Release rate of active ingredient compared to pure form | Solubility compared to pure form
COc1cc(/C=C/c2ccc(O)cc2)cc(OC)c1.COc1nc2c(c(=O)n1C)n(C)c(=O)n2C [ML:PB, Methylliberine: Pterostilbene] | more bioavailable | slow-release rate | lower solubility
Cn1c(=O)c2[nH]cnc2n(C)c1=O.Oc1ccc(/C=C/c2cc(O)cc(O)c2)cc1 [TP:RS, Theophylline: Resveratrol (1:1) Cocrystal] | more bioavailable | slow-release rate | lower solubility
COc1cc(/C=C/c2ccc(O)cc2)cc(OC)c1.Cn1c(=O)c2c(n(C)c1=O)n(C)c(=O)n2C [TC:PB, Theacrine: Pterostilbene] | more bioavailable | slow-release rate | lower solubility

Second part, the molecule after the results:

Bioavailability compared to pure form | Release rate of active ingredient compared to pure form | Solubility compared to pure form | SMILES
more bioavailable | slow-release rate |  | COc1cc(/C=C/c2ccc(O)cc2)cc(OC)c1.Cn1c(=O)c2c(ncn2C)n(C)c1=O [CA:PB, Caffeine: Pterostilbene]
better bioavailability |  | improved solubility | COc1cc(/C=C/c2ccc(O)cc2)cc(OC)c1.Cn1cnc2c1c(=O)[nH]c(=O)n2C [TB:PB, Theobromine: Pterostilbene (1:1) Cocrystal]
more bioavailable | slow-release rate | lower solubility | COc1cc(/C=C/c2ccc(O)cc2)cc(OC)c1.Cn1c(=O)[nH]c2ncn(C)c2c1=O [PX:PB, Paraxanthine: Pterostilbene (1:1) Cocrystal]
